From patent US7432276B2, “ABCA1 elevating compounds” (CV Therapeutics, Inc., priority 2005, dated 2008) come the findings set out here.

The assay relates to ABCA1 mRNA. The experiment in a line: ABCA1 mRNA induction in THP-1 cells, QuantiGene branched DNA assay. It counts as cell-based. The following applies: 10 μM test compound, 18-20 hours; for fold induction at 10 µM: Homo sapiens, read-out: ABCA1 Induction Fold Increase over DMSO Vehicle. The procedure:
Modulation of expression of ABCA1 mRNA levels by the compounds of the invention was determined in the following assays.
Induction of ABC1 in THP-1 cells, was measured using QuantiGene® branched DNA assay as per manufacturer's instructions. Cultures of THP-1 were grown to subconfluence in DMEM/10% FBS before replacement with DMEM/BSA and 10 and 3 μM concentrations of the test compounds in DMSO for 18-20 hours. After treatment of cells with compounds, the cells were lysed with lysis buffer at 37° C. for 20 minutes. The cell lysate and ABCA1 specific probe (Genospectra, Inc., Fremont, Calif.) mix were added to the 96 well capture plate and hybridized at 53° C. for 16-18 hours. The signal was amplified using the amplifier and label probes provided with the QuantiGene® assay followed by addition of a luminescent alkaline phosphatase substrate, dioxitane. Luminescence was quantified in Victor V plate reader.
Step 1 • Cells are lysed to release mRNA in the presence of target probes. Target mRNA from lysed cells was then captured by hybridization and transferred to the Capture Plate.
Step 2 • Signal amplification was performed by hybridization of the bDNA Amplifier and Label Probe.
Step 3 • Addition of chemiluminescence substrate yielded a QuantiGene® signal proportional to the amount of mRNA present in the sample.
Table 1 presents the relative fold increase in ABCA1 expression over DMSO for various compounds of the invention when tested at a concentration of […].

For `COc1cc(-c2cn[nH]c2)cc2c1OC[C@H]1[C@@H]2Nc2ccc(C#N)cc2C1(C)C` [Number 182, (6aR,12aS)-6a,7,12,12a-tetrahydro-4-methoxy-7,7-dimethyl-2-(1H-pyrazol-4-yl)-6H-chromeno[4,3-b]quinoline-9-carbonitrile], the fold induction at 10 µM came to 4.6.

Consider `CC(C)Oc1ccc2c(c1)C(C)(C)C1COc3c(F)cccc3[C@H]1N2` (stereo partly drawn) [Number 103, (12aS)-4-fluoro-7,7-dimethyl-9-(methylethoxy)-7,12,12a,6a-tetrahydrochromano[4,3-b]quinoline], for which the “ABCA1 Induction Fold Increase over DMSO Vehicle” value (shortened to “ABCA1 Induction Fold Increase”) is 4.0 FOLD INCREASE.

Turning to `COc1cccc2c1[C@@H]1[C@@H](CO2)C(C)(C)c2ccccc2N1C1CCCCC1` [Number 167, (6aS,12aS)-12-cyclohexyl-6a,7,12,12a-tetrahydro-1-methoxy-7,7-dimethyl-6H-chromeno[4,3-b]quinoline], the fold induction at 10 µM is 7.9.

`COc1cccc2c1OC[C@H]1[C@@H]2Nc2ccc(C(=O)N3CCS(=O)(=O)CC3)cc2C1(C)C` [Number 129, ((6aR,12aS)-6a,7,12,12a-tetrahydro-4-methoxy-7,7-dimethyl-6H-chromeno[4,3-b]quinolin-9-yl)(1,1-dione-1,4-thiazaperhydroin-yl)methanone]: the “ABCA1 Induction Fold Increase” value came out at 4.3 FOLD INCREASE.

Take `CC1(C)c2cc(C(O)(C(F)(F)F)C(F)(F)F)ccc2N[C@H]2c3cc(Br)ccc3OC[C@H]21` [Number 2, 2-((6aS,12aR)-2-bromo-7,7-dimethyl(7,12,12a,6a-tetrahydrochromano[4,3-b]quinolin-9-yl))-1,1,1,3,3,3-hexafluoropropan-2-ol]: the “ABCA1 Induction Fold Increase” value is recorded as 5.1 FOLD INCREASE.

Regarding `CC1(C)c2cc(C(O)(C(F)(F)F)C(F)(F)F)ccc2N[C@H]2c3ccccc3OC[C@H]21` [Number 70, 2-((6aS,12aR)-7,7-dimethyl(7,12,12a,6a-tetrahydrochromano[4,3-b]quinolin-9-yl))-1,1,1,3,3,3-hexafluoropropan-2-ol], the “ABCA1 Induction Fold Increase” value is recorded as 4.0 FOLD INCREASE.

In the case of `COc1cccc2c1OCC1C2Nc2ccc(N3CCS(=O)(=O)CC3)cc2C1(C)C` (centres unmarked) [Number 21, 4-(4-methoxy-7,7-dimethyl-7,12,12a,6a-tetrahydrochromano[4,3-b]quinolin-9-yl)-1,4-thiazaperhydroine-1,1-dione], the “ABCA1 Induction Fold Increase” value worked out at 5.6 FOLD INCREASE.

With `COc1cc(Br)cc2c1OC[C@@H]1[C@H]2Nc2ccc(C(O)(C(F)(F)F)C(F)(F)F)cc2C1(C)C` [Number 65, 2-((6aS,12aR)-2-bromo-4-methoxy-7,7-dimethyl(7,12,12a,6a-tetrahydrochromano[4,3-b]quinolin-9-yl))-1,1,1,3,3,3-hexafluoropropan-2-ol], the “ABCA1 Induction Fold Increase” value turned out to be 3.2 FOLD INCREASE.

For `COc1cccc2c1[C@H]1Nc3ccc(-n4ncc(C(=O)O)c4C)cc3C(C)(C)[C@H]1CO2` [Number 118, 1-((6aR,12aS)-6a,7,12,12a-tetrahydro-1-methoxy-7,7-dimethyl-6H-chromeno[4,3-b]quinolin-9-yl)-5-methyl-1H-pyrazole-4-carboxylic acid], the fold induction at 10 µM amounted to 4.

With `CCS(=O)(=O)N1CCN(C(=O)c2ccc3c(c2)C(C)(C)[C@@H]2COc4c(F)cccc4[C@H]2N3)CC1` [Number 139, ((6aS,12aS)-4-fluoro-6a,7,12,12a-tetrahydro-7,7-dimethyl-6H-chromeno[4,3-b]quinolin-9-yl)(4-ethanesulfonylpiperazin-1-yl)methanone], the fold induction at 10 µM worked out at 2.8.

As for `COc1cccc2c1[C@H]1Nc3ccc(N4CCS(=O)(=O)CC4)cc3C(C)(C)[C@H]1CO2` [Number 72, 4-((12aS,6aR)-1-methoxy-7,7-dimethyl-7,12,12a,6a-tetrahydrochromano[4,3-b]quinolin-9-yl)-1,4-thiazaperhydroine-1,1-dione], the “ABCA1 Induction Fold Increase” value was 8.4 FOLD INCREASE.

As for `COc1cc(-c2ccccc2)cc2c1OC[C@H]1[C@@H]2Nc2ccc(C(O)(C(F)(F)F)C(F)(F)F)cc2C1(C)C` [Number 77, 2-((12aS,6aR)-4-methoxy-7,7-dimethyl-2-phenyl(7,12,12a,6a-tetrahydrochromano[4,3-b]quinolin-9-yl))-1,1,1,3,3,3-hexafluoropropan-2-ol], the “ABCA1 Induction Fold Increase” value amounted to 5.3 FOLD INCREASE.

Turning to `CCOc1cccc2c1OCC1C2Nc2ccc(C(N)=O)cc2C1(C)C` (centres unmarked) [Number 30, 4-ethoxy-7,7-dimethyl-7,12,12a,6a-tetrahydrochromano[4,3-b]quinoline-9-carboxamide], the “ABCA1 Induction Fold Increase” value is listed as 5.3 FOLD INCREASE.

Consider `CC(C)=CCOC(=O)c1ccc2c(c1)C1Nc3ccc(C(O)(C(F)(F)F)C(F)(F)F)cc3C(C)(C)C1CO2` (centres unmarked) [Number 13, 3-methylbut-2-enyl 7,7-dimethyl-9-[2,2,2-trifluoro-1-hydroxy-1-(trifluoromethyl)ethyl]-7,12,12a,6a-tetrahydrochromano[4,3-b]quinoline-2-carboxylate], for which the “ABCA1 Induction Fold Increase” value was found to be 3.4 FOLD INCREASE.

Take `CC1(C)c2cc(C(O)(C(F)(F)F)C(F)(F)F)ccc2NC2c3ccc(C(=O)O)cc3OCC21` (centres unmarked) [Number 14, 7,7-dimethyl-9-[2,2,2-trifluoro-1-hydroxy-1-(trifluoromethyl)ethyl]-7,12,12a,6a-tetrahydrochromano[4,3-b]quinoline-3-carboxylic acid]: the “ABCA1 Induction Fold Increase” value was found to be 3.1 FOLD INCREASE.

For the molecule `COC(=O)c1ccc2c(c1)C(C)(C)[C@@H]1COc3c(OC)cc(Br)cc3[C@H]1N2` [Number 152, (6aS,12aS)-methyl 2-bromo-6a,7,12,12a-tetrahydro-4-methoxy-7,7-dimethyl-6H-chromeno[4,3-b]quinoline-9-carboxylate], the fold induction at 10 µM was determined as 6.1.

On to `CC1(C)c2cc(-c3nc(C(=O)N4CCS(=O)(=O)CC4)co3)ccc2N[C@@H]2c3c(F)cccc3OC[C@@H]21` [Number 143, 2-((6aR,12aS)-1-fluoro-6a,7,12,12a-tetrahydro-7,7-dimethyl-6H-chromeno[4,3-b]quinolin-9-yl)oxazole-(4-(1,1-dione-1,4-thiazaperhydroin-yl)methanone)], for which the “ABCA1 Induction Fold Increase” value stood at 6.1 FOLD INCREASE.

In the case of `COc1cccc2c1C1Nc3ccc(C(O)(C(F)(F)F)C(F)(F)F)cc3C(C)(C)C1CO2` (centres unmarked) [Number 24, 1,1,1,3,3,3-hexafluoro-2-(1-methoxy-7,7-dimethyl(7,12,12a,6a-tetrahydrochromano[4,3-b]quinolin-9-yl))propan-2-ol], the “ABCA1 Induction Fold Increase” value was 6.5 FOLD INCREASE.

On to `COc1cc(-c2c(C)noc2C)cc2c1OC[C@H]1[C@@H]2Nc2ccc(-c3cnco3)cc2C1(C)C` [Number 165, (6aR,12aS)-6a,7,12,12a-tetrahydro-4-methoxy-7,7-dimethyl-2-(3,5-dimethylisoxazol-4-yl)-9-(oxazol-5-yl)-6H-chromeno[4,3-b]quinoline], for which the fold induction at 10 µM turned out to be 7.4.

`CCOc1cccc2c1OCC1C2Nc2ccc(C(O)(C(F)(F)F)C(F)(F)F)cc2C1(C)C` (centres unmarked) [Number 22, 2-(4-ethoxy-7,7-dimethyl(7,12,12a,6a-tetrahydrochromano[4,3-b]quinolin-9-yl))-1,1,1,3,3,3-hexafluoropropan-2-ol]: the “ABCA1 Induction Fold Increase” value is reported as 4.8 FOLD INCREASE.
